Test results from PubChem BioAssay AID651717 (Broad Institute, 2012).

What follows are compounds tested on mESC Bmi1-luciferase reporter, firefly/renilla ratio, 24 h (assay: compounds raising Bmi1 reporter signal – mouse embryonic stem cells, luciferase, cherry-pick, esBAF inhibitor project, dose response (AID 651717);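 also: luciferase knocked into Bmi1 locus with EF-1a renilla as cell number control; rising ratio signals esBAF inhibition which derepresses Bmi1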).
CN(C)c1ccc(N=Cc2nc(-c3ccccc3)oc2OC(=O)c2cccc(Br)c2)cc1 was tested, and the AC40 was 1.2 µM. Compound COc1ccc2c(CN(C)Cc3ccccc3)cc(=O)oc2c1 has an AC40 of 0.841 µM. CCCC(=O)Nc1ccc2c(c1)C(=O)N(C)C[C@H](OC)[C@@H](C)CN(Cc1ccc(-c3ccccn3)cc1)[C@@H](C)CO2 was tested, and the AC40 was 8.13 µM. In the case of O=C(Cc1c(O)c2ccccc2oc1=O)c1ccc(F)cc1, the AC40 is reported as 2 µM. In the case of COc1cccc(NC(=O)N2CCc3nc(Nc4ccc(C(C)C)cc4)ncc3C2)c1, the AC40 is reported as 29.9 µM. Cc1ccc(C(=O)CNc2ccccc2)cc1 was tested, and the AC40 was 16.6 µM. COc1cc2ccccc2cc1C(=O)Nc1ccccc1C gave an AC40 of 1.85 µM. With Cc1ccc(C)c(OCc2cc(C(=O)N3CC[C@@H]4CCCC[C@H]4C3)no2)c1 the AC40 was 7.9 µM. For CCc1nc(SCc2ccc(Br)cc2)n[nH]1, the AC40 was 2.5 µM. Work on Cc1ccc2c3c([nH]c2c1C)-c1nonc1CC3 yielded an AC40 of 4.53 µM. With c1ccc(Cn2cnc3ccccc32)cc1 the AC40 was 0.984 µM. CC1CCC(NC(=O)c2cc3ccccc3cc2O)CC1 (stereo not drawn) was tested, and the AC40 was 0.967 µM. For N/C(=N\OC(=O)C1CCCCC1)c1ccc(Cl)cc1, the AC40 was 6.24 µM. In the case of CN(c1nc(-c2ccccc2)cs1)C1CCS(=O)(=O)C1 (stereo not drawn), the AC40 is reported as 20.3 µM. For O=C(Nc1ccc(Cl)c(Cl)c1)c1ccncc1, the AC40 was 6.32 µM. CCN1CCN(c2ccc(NC(=O)c3cccc(N4CCCC4=O)c3)cc2)CC1 showed an AC40 of 10.3 µM. For COc1cc(/C=N/NC(=O)c2nnn(-c3nonc3N)c2C)ccc1OCc1ccc(Cl)cc1, the AC40 was 19.7 µM. O=C(NC1CCCC1)c1cc(-c2ccc(Cl)c(Cl)c2)on1 gave an AC40 of 2.8 µM. In the case of O=C(COc1ccc(/C=N/NC(=O)c2cc3ccccc3o2)cc1Br)Nc1ccccc1, the AC40 is reported as 4.24 µM. O=C(/C=N/NC(=O)c1ccc(Cl)cc1Cl)c1ccccc1 was tested, and the AC40 was 1.41 µM. Compound COc1ccc(-c2cc3ccccc3s2)cc1[C@H]1[C@H]2C=CC[C@@H](C)[C@@H]2C(=O)N1Cc1ccccc1 has an AC40 of 1.53 µM. In the case of CCCC(=O)N1CCN(c2nc3ccc(Br)cc3s2)CC1, the AC40 is reported as 1.7 µM. For Cc1ccnc(NC(=O)CCCc2ccccc2)c1, the AC40 was 5.74 µM. Compound Cn1c(SCc2ccccc2)nnc1-c1c[nH]c2ccccc12 has an AC40 of 17.9 µM. With CCCC(=O)Nc1nc(-c2ccc(OC)cc2)cs1 the AC40 was 7.09 µM. O=C1CCCc2cc3c(ccc4ccccc43)cc21 gave an AC40 of 3.18 µM. O=C(Nc1ccc(SC(F)F)cc1)c1ccc2c(=O)n3c(nc2c1)CCC3 showed an AC40 of 2.02 µM. For CC(=O)c1c(C)[nH]c(C(=O)OCc2ccc(Br)cc2)c1C, the AC40 was 6.96 µM. With Oc1ccc(-c2nccc(-c3ccccn3)n2)cc1 the AC40 was 3.66 µM. Compound Cc1ccc(C(=O)N2CCc3ccccc32)cc1C has an AC40 of 3.55 µM. With COC(=O)c1c(-c2ccc(Br)cc2)noc1N the AC40 was 14.7 µM. Cc1c(C(=O)NCc2cccnc2)sc2nc(-c3ccc(F)cc3)cn12 showed an AC40 of 12.2 µM. In the case of Cc1ccc(-c2nc3ccccc3[nH]2)cn1, the AC40 is reported as 3.49 µM. With Oc1ccc(-c2nnc(SCc3ccccc3)o2)cc1 the AC40 was 7.97 µM. O=C(O)c1ccc2c(c1)C(=O)N(CCc1c[nH]c3ccccc13)C2=O showed an AC40 of 5.77 µM. For COC(=O)c1ccc2c(C)c(C3(O)CCCCC3)[nH]c2c1, the AC40 was 7.47 µM. Work on CCCCN(Cc1ccccc1)c1ncnc2nc[nH]c12 yielded an AC40 of 10.1 µM. For COc1ccc(-c2cc(C(=O)Nc3ccc(NC(C)=O)cc3)[nH]n2)c(C)c1, the AC40 was 1.21 µM. In the case of O=c1c2ccccc2nnn1CSc1nnnn1-c1ccccc1, the AC40 is reported as 9.13 µM. Cn1c(C(=O)N/N=C/c2ccccc2)cc2ccccc21 was tested, and the AC40 was 2.84 µM. CCc1sc(C(=O)Nc2ncccc2C)cc1C was tested, and the AC40 was 20.1 µM. CC(=O)Nc1ccccc1OCc1nnc(-c2ccc(Cl)cc2)o1 showed an AC40 of 8.95 µM. Work on OC(c1ccc(F)c(F)c1)c1nc(-c2ccc3ccccc3c2)cs1 (stereo not drawn) yielded an AC40 of 20.3 µM. In the case of CN(C)c1ccc(C=NN2CCCCCC2)cc1, the AC40 is reported as under 0.26 µM. CCC(C)NC(=O)c1cc(CC(C)C)on1 (stereo not drawn) showed an AC40 of 6.83 µM. Work on CC(=O)c1ccc(NC(=O)CNCc2cccs2)cc1 yielded an AC40 of 12.3 µM. Work on FC(F)Oc1ccccc1/C=N/Nc1nc2ccccc2o1 yielded an AC40 of 3.81 µM. Cc1ccc(NC(=O)C2CCCN(c3ncccn3)C2)cc1F (stereo not drawn) showed an AC40 of 1.16 µM. In the case of O=C(NCc1ccccc1)c1cc(-c2cccc(O)c2)on1, the AC40 is reported as 12.6 µM. Fc1cc(Cl)cc2ccc(-c3ccccc3)nc12 was tested, and the AC40 was 1.45 µM. Work on CN(C)S(=O)(=O)c1ccc2c(c1)/C(=C/c1cc3c([nH]1)CCCC3)C(=O)N2 yielded an AC40 of 3.25 µM. In the case of C[C@H]1CN([C@@H](C)CO)C(=O)CCCn2nncc2CO[C@@H]1CN(C)C(=O)Nc1ccc2c(c1)OCCO2, the AC40 is reported as 29.2 µM. With O=c1ccc2ccc(OCc3ccccc3)cc2o1 the AC40 was 3.55 µM. CC(=O)c1ccc(OCc2cc(C(=O)N(C)Cc3ccccn3)no2)cc1 was tested, and the AC40 was 6.33 µM. CCSc1nnc(NC(=O)c2ccc3nc[nH]c3c2)s1 showed an AC40 of 12.7 µM. With CCN(C(=O)c1cccs1)c1nnc(-c2ccncc2)s1 the AC40 was 1.05 µM. COc1cc(C)ccc1OCc1cc(C(=O)N2CCN(C3CCCCC3)CC2)no1 showed an AC40 of 5.3 µM. O=C(Nc1cccc2ccccc12)c1cnccn1 gave an AC40 of 6.43 µM. O=C(CCNS(=O)(=O)c1cccs1)N1CCc2ccccc2C1 was tested, and the AC40 was 6.72 µM. With O=C(Nc1ccc(Cl)c(Cl)c1)Nc1ccccc1O the AC40 was 1.14 µM. Cc1ccc(CNC(=O)C2CCC(=O)N(CCc3ccc(Cl)cc3)C2)cc1 (stereo not drawn) showed an AC40 of 5.36 µM. In the case of Cc1sc(NC(=O)C2CCCCC2C(=O)O)c(C(N)=O)c1-c1ccc(C(C)C)cc1 (stereo not drawn), the AC40 is reported as 6.81 µM. With COc1ccc2c(c1)nc(-c1cccc(Br)c1)c(=O)n2C(c1ccccn1)c1nc2ccccc2[nH]1 (stereo not drawn) the AC40 was 2.94 µM. C=CCNc1nc2cc(-c3ccccc3OC)sc2c(=O)n1C was tested, and the AC40 was 5.18 µM. In the case of CC(=O)N(C)c1nc(-c2ccc(Cl)cc2)cs1, the AC40 is reported as 5.63 µM. For CCOC(=O)C1=C(CSc2nc(-c3ccccc3)ccc2C#N)OC(N)=C(C#N)C1c1ccccc1 (stereo not drawn), the AC40 was 12.4 µM. For Clc1cccc(Cl)c1Cn1nnc(-c2cccs2)n1, the AC40 was 3.31 µM. CC(C)CN1C(=O)c2ccc(C(=O)Nc3nccs3)cc2C1=O showed an AC40 of 1.98 µM. In the case of c1ccc(-c2ccc3[nH]ccc3c2)cc1, the AC40 is reported as 3.07 µM. For CCCCCCCNC(=O)C1(CC2CC(c3ccccc3)=NO2)CCN(C(=O)OC(C)(C)C)CC1 (stereo not drawn), the AC40 was 15.4 µM. In the case of Cc1ccc(NC(=O)Cc2noc3ccccc23)cc1, the AC40 is reported as 2.47 µM. For COc1ccc2nc(C(c3ccc(C)cc3)n3c(-c4ccccc4Br)nc4ccccc43)[nH]c2c1 (stereo not drawn), the AC40 was 0.494 µM. Compound COc1ccc(NC(=O)c2cc(F)cc(F)c2)cc1Cl has an AC40 of 4.77 µM. With COc1cccc(CN(C)C(=O)c2ccc(COc3ccc(Cl)cc3)cc2)c1OC the AC40 was 5.66 µM. Compound O=C(Nc1ccccc1Cl)NC1CCCCCCC1 has an AC40 of 5.67 µM. NNC(=O)c1nc2ccccc2s1 gave an AC40 of 4.4 µM. COc1ccc(Nc2ncnc3sc(C)cc23)cc1 showed an AC40 of 5.43 µM. Work on CO[C@H]1CN(C)C(=O)c2cc(NC(=O)Nc3ccc4c(c3)OCO4)ccc2OC[C@H](C)NC[C@H]1C yielded an AC40 of 3.29 µM. In the case of O=C(Nc1ccc2ccccc2c1)c1cccc2ccccc12, the AC40 is reported as 0.829 µM. With O=C(NC1CCCCC1)c1ccc(-c2ccccc2)cc1 the AC40 was 3.77 µM. For O=c1sc(N2CCN(c3ccc(F)cc3)CC2)nc2ccsc12, the AC40 was 1.76 µM. With Cc1noc(C)c1C(=O)Nc1nc(-c2cc(F)ccc2F)cs1 the AC40 was 6.63 µM. For CC(=O)Oc1ccc(-c2cc3ccccc3oc2=O)cc1, the AC40 was 3.22 µM. Work on O=C(Nc1ccc(Cl)cc1Cl)c1csc(-c2cccnc2)n1 yielded an AC40 of 6.82 µM. With CCS(=O)(=O)n1nc(-c2ccc(Cl)cc2)nc1SC the AC40 was 4.79 µM. Cc1ccc2nc(-c3cccc(S(=O)(=O)N4CCCC4)c3)cn2c1 gave an AC40 of 23.2 µM. COc1ccc2cc(C(=O)N(C)CC(=O)Nc3ccccc3Br)ccc2c1 gave an AC40 of 5.86 µM. Oc1[nH]c2ccccc2c1/C=N/c1nccs1 showed an AC40 of 4.59 µM. For O=C1/C(=C/c2cccc3ccccc23)CCCc2ccccc21, the AC40 was 5.34 µM. CN(Cc1ccccn1)C(=O)c1cc(COc2ccc(F)c(F)c2)on1 showed an AC40 of 3.82 µM. In the case of CNc1cncc(-c2cccc(OC)c2F)n1, the AC40 is reported as 1.24 µM. Compound Cc1ccc(C(=O)CN2C(=O)NC3(CCCCCC3)C2=O)c(C)c1 has an AC40 of 1.63 µM. Work on COc1cccc(NC(=O)C(=O)NCCC2CCCCN2S(=O)(=O)c2cccs2)c1 (stereo not drawn) yielded an AC40 of 3.86 µM. Fc1ccc(CSc2ccc(-c3cccs3)nn2)cc1 showed an AC40 of 5.03 µM. Compound Cn1ccc2c(-c3ccc(C(=O)O)cc3)cc3c(c21)C1CCC3C1 (stereo not drawn) has an AC40 of 4.09 µM. O=C(NCCO)c1cccc(-c2cnc3c(Nc4cccc(OC(F)(F)C(F)F)c4)nccn23)c1 showed an AC40 of 4.46 µM. COc1ccc(C2=NN(C(=O)c3ccccc3C(=O)O)C(c3ccccc3O)C2)cc1 (stereo not drawn) gave an AC40 of 6.57 µM. In the case of COc1ccc2nc3sc(C(=O)NCCCN4CCc5ccccc5C4)cc3cc2c1, the AC40 is reported as 11.9 µM. With Cc1cc(F)ccc1-c1cc(C(=O)NC2CCCCC2)[nH]n1 the AC40 was 9.06 µM. Cc1cccc(OCc2nc3ccccc3n2C)c1 was tested, and the AC40 was 6.7 µM. Compound COc1cccc(NC(=O)c2ccccc2Br)c1 has an AC40 of 4.25 µM. Compound O=C(NCCc1ccccc1)c1nccc2ccccc12 has an AC40 of 6.84 µM. With Cc1ccc(-c2nc(COC(=O)c3c(C)noc3C)cs2)cc1 the AC40 was 4.93 µM. Cc1cc(C)c2nc(-c3ccccc3)ccc2c1 was tested, and the AC40 was 1.5 µM. Compound COc1ccc(-c2ccc3oc(-c4ccsc4)cc(=O)c3c2)cn1 has an AC40 of 1.67 µM. For CCc1cc(CNC(=O)c2cc(COc3ccc(C)nc3)on2)on1, the AC40 was 6.87 µM. Compound COc1ccc(-c2cn3c(C)c(C(=O)NC(C)(C)C)sc3n2)cc1 has an AC40 of 1.02 µM. Compound CCOC(=O)N1CCN(C(=O)CSCC(=O)Nc2nc(-c3ccc4c(c3)OCO4)cs2)CC1 has an AC40 of 12.1 µM. CN(Cc1nccn1C)C(=O)c1ccc2nc(Cc3ccccc3F)oc2c1 showed an AC40 of 5.37 µM. Work on CO[C@@H]1CN(C)C(=O)c2cc(NC(=O)Nc3ccc4c(c3)OCO4)ccc2OC[C@H](C)NC[C@@H]1C yielded an AC40 of 6.97 µM. COc1ccc(-c2csc(Nc3cc(C)ccn3)n2)cc1C was tested, and the AC40 was 1.91 µM. COc1ccccc1C(=O)NCC(=O)Nc1ccc2c(c1)CCC2 was tested, and the AC40 was 3.24 µM. With c1ccc(Cn2c(-c3cncs3)nc3ccccc32)cc1 the AC40 was 11.8 µM. COC(=O)c1sc(Nc2ccccc2)nc1C gave an AC40 of 4.18 µM. Work on O=C(O)c1ccc(O)c2ncccc12 yielded an AC40 of 1.67 µM. With CCCS(=O)(=O)N1CCC(C(=O)NC2CCC(C)CC2)CC1 (stereo not drawn) the AC40 was 3.19 µM. O=C(NC1CCCCC1)c1n[nH]c2c1CC(c1ccccc1)CC2 (stereo not drawn) was tested, and the AC40 was 0.996 µM. Work on Cc1noc(C)c1-c1csc(N2CCC(C(N)=O)CC2)n1 yielded an AC40 of 0.444 µM. Compound C=CCn1c(-c2ccc(N)cc2)nc2ccccc21 has an AC40 of 0.806 µM. Work on CSCc1nc2sc(C(=O)Nc3nc(C)cs3)c(C)c2c(=O)[nH]1 yielded an AC40 of 4.19 µM. O=C(NNC(=O)c1cccc2ccccc12)c1ccc(Cl)cc1Cl gave an AC40 of 12.7 µM. In the case of COc1ccccc1CCC(=O)Nc1nc2ccccc2[nH]1, the AC40 is reported as 3 µM. Work on Cc1cc2oc(=O)cc(CN(C)Cc3ccccc3F)c2cc1Cl yielded an AC40 of 4.33 µM.
